Tests used:
[1] = molecular target: T1, HsPDF (Homo sapiens, UniProt Q9HBH1); assay: HsPDF %I 100uM
T1 construct: A 63 amino acid N-terminally truncated human peptide deformylase (HsPDF); 6His (C); made in house; host or cells: E. coli BL21 (DE3), co-transformed with the GroES/EL chaperone plasmid
Protocol: (§1) Table printed on a drawing sheet, Figure 5
Head of the field: HsPDF %I 100uM
(§2) Footnotes: -26 124 % inhibition
(§3) The patent's description of the figure: FIG. 5.
Where the first naming reader finds the target: head: HsPDF %I 100uM

[2] = system: EcPDF
Protocol: Head of the field: EcPDF %I 100uM
(§4) Specificity profiling of the derivatives of benzofuran-4,5-diones.
Where the first naming reader finds the target: head: EcPDF %I 100uM

[3] = molecular target: T1, HsPDF; assay: HsPDF %I 10uM
Protocol: as §1
Head of the field: HsPDF %I 10uM
as §2, §3
Where the first naming reader finds the target: head: HsPDF %I 10uM

[4] = system: EcPDF; remark: listed apart in the source
Protocol: Head of the field: EcPDF %I 10uM
as §4
Where the first naming reader finds the target: head: EcPDF %I 10uM

[5] = system: APN; assay: APN %I 100uM
Protocol: as §1
Head of the field: APN %I 100uM
as §2, §3
Where the first naming reader finds the target: head: APN %I 100uM

[6] = system: MMP-1; assay: MMP-1 %I 100uM
Protocol: as §1
Head of the field: MMP-1 %I 100uM
as §2, §3
Where the first naming reader finds the target: head: MMP-1 %I 100uM

[7] = molecular target: T2, HsPDF (Homo sapiens, UniProt Q9HBH1); assay: FLUO functional assay (fluorescamine, substrate fMAHA); type: biochemical; settings: 0.5 μM HsPDF, upper limit 10 μM compound
T2 construct: A 63 amino acid N-terminally truncated human peptide deformylase (HsPDF); 6His (C); made in house; host or cells: E. coli BL21 (DE3), co-transformed with the GroES/EL chaperone plasmid
T2 sequence (Q9HBH1 64-243 limits assumed): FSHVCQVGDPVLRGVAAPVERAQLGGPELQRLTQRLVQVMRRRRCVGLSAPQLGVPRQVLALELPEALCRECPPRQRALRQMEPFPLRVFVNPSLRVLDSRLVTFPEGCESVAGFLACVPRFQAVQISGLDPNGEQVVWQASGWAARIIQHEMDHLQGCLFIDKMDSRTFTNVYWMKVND
Protocol: High controls consisted of 1% DMSO (v/v). […] The deformylation reaction mixture was incubated for one hour at room temperature. A separate set of plates containing 3 μL of fluorescamine at 1 mg/mL in 100% DMSO was prepared for the labeling step. Then, 17 μL of the reaction mixture from the original set of plates was transferred to the plates containing the fluorescamine solution for the labeling step. The readout was performed on a Perkin Elmer VICTOR^3 V™ Multi label counter, using an excitation wavelength of 355 nm, and an emission wavelength of 460 nm. […] Compounds inducing a variation of fluorescence greater than 20% were flagged as optically active compounds.
High controls consisted of 1% DMSO (v/v). […] The deformylation reaction mixture was incubated for one hour at room temperature. A separate set of plates containing 3 μL of fluorescamine at 1 mg/mL in 100% DMSO was prepared for the labeling step. Then, 17 μL of the reaction mixture from the original set of plates was transferred to the plates containing the fluorescamine solution for the labeling step. The readout was performed on a Perkin Elmer VICTOR3 V™ Multi label counter, using an excitation wavelength of 355 nm, and an emission wavelength of 460 nm.

| IC50 [7] | SMILES | HsPDF %I 100uM [1] | EcPDF %I 100uM [2] | HsPDF %I 10uM [3] | EcPDF %I 10uM [4] | APN %I 100uM [5] | MMP-1 %I 100uM [6] |
| --- | --- | --- | --- | --- | --- | --- | --- |
| – | COc1ccc(C(=O)c2coc3c(Cl)c(Cl)c(O)cc23)cc1OC [SKC-BF-Int16, (6,7-Dichloro-5-hydroxy-benzofuran-3-yl)-(3,4-dimethoxy-phenyl)-methanone] | -21 %I | -6 %I | -24 %I | 4 %I | – | – |
| – | COc1ccc(C(=O)c2coc3c2C(=O)C(=O)c2ccccc2-3)cc1OC [SKC-NF-02, 3-(3,4-Dimethoxy-benzoyl)-naphtho[1,2-b]furan-4,5-dione] | 36 %I | 30 %I | 18 %I | 17 %I | 20 %I | 21 %I |
| – | COc1ccc(C(=O)c2coc3ccc(O)cc23)cc1OC [SKC-BF-Int13, (3,4-Dimethoxy-phenyl)-(5-hydroxy-benzofuran-3-yl)-methanone] | 8 %I | 7 %I | -6 %I | -26 %I | – | 3 %I |
| 1800 nM | O=C1C(=O)c2c(C(=O)c3ccsc3)coc2C(Cl)=C1Cl [SKI 417512, 6,7-dichloro-3-(thiophene-3-carbonyl)benzofuran-4,5-dione] | – | – | – | – | – | – |
| 1800 nM | O=C1C(=O)c2c(C(=O)c3ccc(-n4ccnc4)cc3)coc2C(Br)=C1Br [SKI 417499, 3-(4-(1H-imidazol-1-yl)benzoyl)-6,7-dibromobenzofuran-4,5-dione] | – | – | – | – | – | – |
| – | COc1cc(C(=O)c2coc3ccc(O)cc23)cc(OC)c1OC [SKC-BF-Int19] | 31 %I | 7 %I | 4 %I | – | – | 19 %I |
| – | COc1ccc(C(=O)c2coc3c(Cl)c(Cl)c(O)cc23)cc1 [SKC-BF-Int10F, (6,7-Dichloro-5-hydroxy-benzofuran-3-yl)-(4-methoxyphenyl)-methanone] | – | – | 4 %I | – | -4 %I | – |
| 3400 nM | O=C1C(=O)c2c(C(=O)c3ccccc3)coc2C(Br)=C1Br [SKI 417508, 3-benzoyl-6,7-dibromobenzofuran-4,5-dione] | – | – | – | – | – | – |
| – | O=C(c1ccccc1)c1coc2c(Cl)c(Cl)c(O)cc12 [SKC-BF-Int4, (6,7-Dichloro-5-hydroxy-benzofuran-3-yl)-phenyl-methanone] | 24 %I | 1 %I | 8 %I | 6 %I | 6 %I | -20 %I |
| – | COc1ccc(C(=O)c2coc3ccc(O)c(Br)c23)cc1 [SKC-BF-Int7C, (4-Bromo-5-hydroxy-benzofuran-3-yl)-(4-methoxyphenyl)-methanone] | -20 %I | -4 %I | 3 %I | -4 %I | -14 %I | – |
| – | COc1ccc(C(=O)c2coc3ccc(O)cc23)cc1 [SKC-BF-Int9, (5-Hydroxy-benzofuran-3-yl)-(4-methoxyphenyl)-methanone] | – | – | – | 5 %I | 4 %I | – |
| – | COc1ccc(C(=O)c2coc3cc(Br)c(O)cc23)cc1 [SKC-BF-Int7A, (6-Bromo-5-hydroxy-benzofuran-3-yl)-(4-methoxyphenyl)-methanone] | -5 %I | -14 %I | -17 %I | -8 %I | -17 %I | – |
| 2300 nM | O=C1C(=O)c2c(C(=O)c3ccc4c(c3)OCCO4)coc2C(Br)=C1Br [SKI 417504, 6,7-dibromo-3-(2,3-dihydrobenzo[b][1,4]dioxine-6-carbonyl)benzofuran-4,5-dione] | – | – | – | – | – | – |
| – | COc1cc(C(=O)c2coc3c(Br)c(Br)c(O)cc23)cc(OC)c1OC [SKC-BF-Int21, (6,7-Dibromo-5-hydroxy-benzofuran-3-yl)-(3,4,5-trimethoxy-phenyl)methanone] | 5 %I | 7 %I | – | 4 %I | – | – |
| – | COc1ccc(C(=O)c2coc3c(Br)cc(O)c(Br)c23)cc1 [SKC-BF-Int7D, (4,7-Dibromo-5-hydroxy-benzofuran-3-yl)-(4-methoxy-phenyl)-methanone] | -9 %I | -8 %I | 0 %I | – | – | – |
| – | COc1ccc(C(=O)c2coc3c2C(=O)C(=O)C(Cl)=C3Cl)cc1 [SKC-BF-05, 6,7-Dichloro-3-(4-methoxy-benzoyl)-benzofuran-4,5-dione] | – | 1 %I | – | 0 %I | – | -19 %I |
| – | COc1ccc(C(=O)c2coc3c2C(=O)C(=O)C(Br)=C3)cc1 [SKC-BF-06, 6-Bromo-3-(4-methoxybenzoyl)-benzofuran-4,5-dione] | – | – | 29 %I | – | – | – |
| – | COc1ccc(C(=O)c2coc3c(Br)c(Br)c(O)cc23)cc1OC [SKC-BF-Int14, (6,7-Dibromo-5-hydroxy-benzofuran-3-yl)-(3,4-dimethoxy-phenyl)-methanone] | – | -20 %I | 3 %I | 3 %I | -6 %I | -20 %I |
| – | COc1cc(C(=O)c2coc3c2C(=O)C(=O)C(Cl)=C3Cl)cc(OC)c1OC [SKC-BF-11, 6,7-Dichloro-3-(3,4,5-trimethoxy-benzoyl)-benzofuran-4,5-dione] | – | 27 %I | – | – | – | 32 %I |
| – | COc1cc(C(=O)c2coc3c(Cl)c(Cl)c(O)cc23)cc(OC)c1OC [SKC-BF-Int22, (6,7-Dichloro-5-hydroxy-benzofuran-3-yl)-(3,4,5-trimethoxy-phenyl)methanone] | 18 %I | 2 %I | – | 4 %I | 2 %I | -14 %I |
| – | COc1cc(C(=O)c2coc3c2C(=O)C(=O)c2ccccc2-3)cc(OC)c1OC [SKC-NF-03, 3-(3,4,5-Trimethoxy-benzoyl)-naphtho[1,2-b]furan-4,5-dione] | – | 21 %I | 25 %I | 18 %I | – | 21 %I |
| – | COc1ccc(C(=O)c2coc3cc(Cl)c(O)c(Cl)c23)cc1 [SKC-BF-Int10D, (4,6-Dichloro-5-hydroxy-benzofuran-3-yl)-(4-methoxyphenyl)-methanone] | 26 %I | 3 %I | 21 %I | 4 %I | – | – |
| – | COc1ccc(C(=O)c2coc3c2C(=O)C(=O)C=C3Cl)cc1 [SKC-BF-03, 7-Chloro-3-(4-methoxybenzoyl)-benzofuran-4,5-dione] | – | – | – | -6 %I | – | – |
| – | COc1ccc(C(=O)c2coc3c(Cl)cc(O)c(Cl)c23)cc1 [SKC-BF-Int10E, (4,7-Dichloro-5-hydroxy-benzofuran-3-yl)-(4-methoxy-phenyl)-methanone] | 9 %I | -4 %I | – | – | -4 %I | -4 %I |
| – | O=C(c1ccccc1)c1coc2ccc(O)cc12 [SKC-BF-Int3, (5-Hydroxy-benzofuran-3-yl)-phenyl-methanone] | – | 7 %I | – | 7 %I | – | – |
| – | COc1ccc(C(=O)c2coc3c(Br)cc(O)cc23)cc1 [SKC-BF-Int7B, (7-Bromo-5-hydroxy-benzofuran-3-yl)-(4-methoxyphenyl)-methanone] | – | 9 %I | – | 18 %I | -5 %I | -19 %I |
| 2300 nM | O=C1C(=O)c2c(C(=O)c3ccc(C(=O)O)cc3)coc2C(Br)=C1Br [SKI 417518, 4-(6,7-dibromo-4,5-dioxo-4,5-dihydrobenzofuran-3-carbonyl)benzoic acid] | – | – | – | – | – | – |

— patent US8614237B2, “Benzofuran-4,5-diones as selective peptide deformylase inhibitors” (Sloan-Kettering Institute for Cancer Research, priority 2009, dated 2013)
